Results reported in PubChem BioAssay (NCI).
Several values for one entry are separate records, joined by “and”; a condition that tells them apart may be missing. Equal values may be shown once.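 Tested at 5 concentrations; 48 h exposure; 96-well plates; endpoints linearly interpolated, else capped at highest concentration. Here, GI50 denotes the concentration required for 50% inhibition of growth. The concentration for full growth arrest is given as TGI.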

Legend:
Assay in all cases: growth of human tumour cells (NCI), 48 h
A498 renal = system: A498 renal
HOP-62 NSCLC = system: HOP-62 NSCLC
MCF7 breast = system: MCF7 breast
NCI-H460 lung = system: NCI-H460 lung
OVCAR-3 ovarian = system: OVCAR-3 ovarian
SF-295 CNS = system: SF-295 CNS
TK-10 renal = system: TK-10 renal
M14 melanoma = system: M14 melanoma
SK-OV-3 ovarian = system: SK-OV-3 ovarian
UACC-62 melanoma = system: UACC-62 melanoma

Structure (SMILES)	GI50 (A498 renal)	GI50 (HOP-62 NSCLC)	GI50 (MCF7 breast) [nM]	GI50 (NCI-H460 lung)	TGI (NCI-H460 lung)	GI50 (OVCAR-3 ovarian)	TGI (OVCAR-3 ovarian)	GI50 (SF-295 CNS)	TGI (TK-10 renal)	TGI (A498 renal) [µM]	TGI (HOP-62 NSCLC) [µM]	TGI (M14 melanoma) [µM]	TGI (MCF7 breast) [µM]	TGI (SF-295 CNS) [µM]	TGI (SK-OV-3 ovarian) [µM]	GI50 (TK-10 renal) [µM]	GI50 (UACC-62 melanoma) [µM]	TGI (UACC-62 melanoma) [µM]	GI50 (M14 melanoma) [nM]	GI50 (SK-OV-3 ovarian) [nM]
CC[C@@]1(O)C(=O)OCc2c1cc1n(c2=O)Cc2cc3c(CN(C)C)c(O)ccc3nc2-1	20.5 nM and 29.9 nM	10.2 nM and 6.21 nM and 16.3 nM	< 10	< 10 nM and 4.56 nM and 21 nM	0.499 µM and 1.58 µM and 0.222 µM	107 nM and 124 nM and 551 nM	1.37 µM and 7.71 µM and 2.12 µM	< 10 nM and 10.4 nM and 30.4 nM	14.2 µM and 64.8 µM and 88.7 µM											
Clc1ccc(OCc2nnc3sc(SSc4nn5c(COc6ccc(Cl)cc6)nnc5s4)nn23)cc1	28900 nM		45000		> 100 µM	35300 nM	80.4 µM		> 100 µM	86	> 100	> 100	> 100	> 100	> 100	73.2	44.7	> 100		
Fc1cc(C2=Nn3c(CNc4ccc(Cl)cc4)nnc3S/C2=C\c2ccc(-c3ccc(Cl)cc3)o2)c(Cl)cc1Cl					> 100 µM		> 100 µM		> 100 µM	65.6	91.6	> 100	> 100	52.4				55.8		
CC1(CO)C(O)CCC2(C)C1C(O)CC1CC3CC12CCC3(O)CO (centres undefined)					> 225 µM		> 225 µM			> 225	> 225		> 225	> 104	> 225			> 225		
OC(c1ccccc1)C1CC2C=CC1C2 (centres undefined)					> 100 µM		> 100 µM		> 100 µM	> 100	> 100	> 100		> 100	> 100			> 100		
CNCCCn1c2c(c3ccc(Cl)cc3c1=O)C(=O)c1cc(OC)cnc1-2	531 nM			46.2 nM	1.25 µM	1410 nM	2.78 µM	132 nM		9.07		1.89		1.38	2.08				569	658
Fc1ccc(Nc2ncc(-c3cc(F)c(Cl)cc3Cl)s2)cc1Cl	11200 nM	9430 nM		2980 nM	9.61 µM	10500 nM	23.9 µM	15900 nM	21.8 µM	29.1	21.8		2.48	31	> 100	8.05	8.41	26.5		90800
COc1ccc(/C=C2\C[C@H]3[C@@H]4CC=C5C[C@@H](OC(C)=O)CC[C@]5(C)[C@H]4CC[C@]3(C)C2=O)cc1OC					> 100 µM		> 100 µM			> 100	> 100	> 100	> 100	> 100				> 100		
Clc1ccc(C2CC(c3cccc(Nc4ccncc4)c3)=NN2c2ccccc2)cc1 (centres undefined)	1430 nM	2310 nM	1650	1910 nM	3.65 µM			1660 nM	3.45 µM	3.3	5.15	3.37	3.44	3.07	7.33	1.83	1.71	3.13	1730	2570
CC(C)C(=O)Nc1ccc(-c2nc(-c3cccc(OCCN4CCOCC4)c3)c(-c3ccnc(Br)c3)[nH]2)cc1	1600 nM	2940 nM	1890	3980 nM	25.4 µM	4240 nM	> 100 µM	1090 nM	31.3 µM	4.74	14.5	4.46	4.92	2.88	5.53	4.32	2.1	5.71	1930	2450
CC(C)(C)CNCCCNc1ccc(Cl)cc1					> 100 µM				73.9 µM	51.5	> 100	58.6	46	69.1	> 100			33.4		
COc1ccc(C2CC(c3ccc(NS(=O)(=O)c4cc([N+](=O)[O-])ccc4C)cc3)=NN2S(=O)(=O)c2cc([N+](=O)[O-])ccc2C)cc1 (centres undefined)					> 100 µM		> 100 µM		> 100 µM	> 100	> 100	> 100	> 100	> 100	> 100			> 100		
